One assay concerns Hsp40. Put plainly: Western blot of Hsp40 in kidney tissue lysates. The settings on record: cyst induced pkd−/− mice, VX-809 30 mg/kg BW. The assay is classed as in vivo, mouse. The protocol: FIG. 7A, FIG. 7B, FIG. 7C, FIG. 7D, FIG. 7E, and FIG. 7F show chaperone expression is altered in mice by VX-809. (FIG. 7A-FIG. 7B) Representative Western blot images of HSP27, 70, 90 and HSP40 in lysates of kidney tissue from no cyst induced (ND), cyst induced with Doxycycline (D) or cyst induced pkd−/− mice treated with VX-809 (D+VX-809) 30 mg/kg BW. (FIG. 7C, FIG. 7D, FIG. 7E, and FIG. 7F) Columns represent averages±standard errors of HSP27, 70, 90 and HSP40 expression. Data were analyzed by non-parametric t-test. n=4 for each treated and control groups. Black lines between lanes represent representative experiments from the same gel. *P<0.05; **P<0.01; To facilitate their growth in the kidney, cysts have developed an altered network of proteins that most likely serves to protect them from stress (34). Next, it was determined whether VX-809 would alter the levels of Hsps in pkd−/− mice and in PN cells. […] Hsp 27, 70 and 90 are all elevated in cystic kidneys compared to normal controls. […] There is no change in Hsp 40. […] Both sets of data are consistent with an alteration in the heat shock response to cyst growth.

A further assay deals with GADD153. The assay can be described thus: Western blot of ER stress marker GADD153 in kidney tissue. The format is in vivo, mouse. The settings on record: cyst containing mice, VX-809 30 mg/kg BW. The procedure: FIG. 11A. FIG. 11B, FIG. 11C, FIG. 11D, and FIG. 11E show expression of ER stress markers GRP78, ErO1, and GADD in Pkd1^−/− mice treated with VX-809. (FIG. 11A & FIG. 11D) Representative Western blot images of GRP78, ErO1, and GADD in lysates of kidney tissue from no cyst induced (ND), cyst induced with doxycycline (D) or cyst induced pkd−/− mice treated with VX-809 (D+VX-809) 30 mg/kg BW. (FIG. 11B, FIG. 11C and FIG. 11E) Columns represent averages±standard errors of GRP78, ErO1, and GADD153 expression. Data were analyzed by non-parametric t-test. n=4 for each treated and control groups. Black lines between lanes represent representative experiments from the same gel but loaded in different lanes. **P<0.01, ***P<0.001;
Given that VX-809 alters an ensemble of Hsps, it was evaluated whether VX-809 alters proteins associated with ER stress. To address this question, the levels of three ER stress-associated proteins were measured, 78-kDa glucose-regulated protein (GRP78), ER oxidoreductin 1 (Ero1) and DNA damage-inducible protein 3 (GADD153), also known as C/EBP homologous protein (CHOP) (37). The results are depicted in FIG. 11 show no changes in GRP78 or Ero1 in response to VX-809.
For orientation: A western blot detects proteins with antibodies after separation by electrophoresis.

The next assay has as its system PN cells. Put plainly: BrdU cell proliferation assay. The assay is classed as cell-based, mouse. The settings on record: 1 and 10 μM vs DMSO-treated cells. The text has this:
FIG. 3A, FIG. 3B, FIG. 3C, and FIG. 3D show cell proliferation is reduced by VX-809. (FIG. 3A-FIG. 3B) Proliferation in kidneys of Pkd1^fl/fl; Pax8^rtTA; TetO-cre mice. Representative images of Ki67 (a cellular marker for proliferation) staining of PN21 kidney sections from DMSO- and VX-809-treated mice. Arrows indicate Ki67-positive cells. Pictures were acquired with a Zeiss microscope equipped with 20× objective. (FIG. 3C) Summary data for Ki67-positive cells. Columns represent averages±standard errors of DMSO (vehicle)-treated (n=3) and VX-809-treated (n=3) mice. Statistical analysis was performed using a two-tailed Student's t test. (FIG. 3D) Proliferation in PN cells. PN cells were treated with VX-809 or DMSO). The bromodeoxyuridine (BrdU) concentration in the cells was measured by using a BrdU cell proliferation assay kit (Millipore Sigma #2750) according to the manufacturer's protocol. Columns represent averages±SEs of the OD of BrdU at 450/550 […]. Data were analyzed using Student's t-test, with n=5-7. Methods were described previously (62). […]; **P<0.01;
A hallmark of the cysts in ADPKD is an increase in proliferation in response to cAMP (23). Therefore, it was determined whether VX-809 would affect proliferation.

In assay [1] the test system is intracellular Ca2+ in PN cells. Put plainly: Fura-2 Ca2+ imaging assay. The assay is classed as cell-based, mouse. The following applies: VX-809 10 μM 16 h. The protocol:
FIG. 5A, FIG. 5B, FIG. 5C, FIG. 5D, FIG. 5E, and FIG. 5F show intracellular Ca2+ (F340/F380) levels obtained by ratiometric Fura-2 AM analysis of PN cells treated with VX-809 (10 μM) for 16 h. (FIG. 5A) Representative traces of intracellular Ca2+ release in response to ATP (100 μM) in PN cells and cells treated with VX-809 (10 μM). (FIG. 5B, FIG. 5C) Graphs summarizing resting calcium levels (FIG. 5B) and the average amplitude of Ca2+ release (FIG. 5C) in response to ATP. (FIG. 5D) Representative traces of ER Ca2+ release in response to thapsigargin (4 μM) in PN cells treated with VX-809. (FIG. 5E, FIG. 5F) Resting calcium levels (FIG. 5E) and the average amplitude of Ca2+ release (FIG. 5F) in response to thapsigargin. Amplitude was measured as the […] of the signal base to peak Δf/f. Significance between the two groups was analyzed using Student's t-test, n=4-5). *P<0.05, ***P<0.001.
Ca^2+-dependent signal transduction is associated with cyst formation (26), (29). […] To address the effect of VX-809 on this Ca^2+ release, the cells were treated with thapsigargin, a specific inhibitor of the ER Ca^2+-ATPase which, when applied, allows Ca^2+ to leak out of the ER through independent Ca^2+-permeable pathways (33). A small effect of VX-809 on resting Ca^2+ was observed.
On Day 5 of cell culture, the cells were loaded with the cell-permeant acetoxymethyl (AM) ester of the calcium indicator fura-2 (fura-2/AM) at 37° C. for 90 min. Measurements were made on a Zeiss inverted microscope equipped with a Sutter Lambda 10-2 controller and filter wheel assembly. For ATP stimulation experiments, the cells were exposed to 100 μM ATP diluted in the imaging buffer. A Zeiss FluorArc mercury lamp was used to excite the cells at 340 and 380 nm, and the emission response was measured at 510 nm. Cell fluorescence was measured in response to excitation for 1000 ms at 340 nm and 200 ms at 380 nm once every 4 s. Image acquisition, image analysis, and filter wheel control were performed with IPLab software (see (25)).

This note sets out measurements from patent US20200289482A1, “CYSTIC FIBROSIS TRANSMEMBRANE CONDUCTANCE REGULATOR MODULATORS FOR TREATING AUTOSOMAL DOMINANT POLYCYSTIC KIDNEY DISEASE” (The Johns Hopkins University, priority 2017, published 2020).

As to lumacaftor [VX-809], the “Hsp40 expression in kidneys” value in the assay on Hsp40 was “no change”. In addition, in the assay on GADD153, the “GADD153 expression (Western blot)” value is “equally dramatic reduction in GADD153”. In addition, the “cell proliferation (BrdU)” value in the assay on PN cells is reported as “significantly inhibit cell proliferation”. Also, the “resting Ca2+” value in assay [1] is “small reduction in resting Ca^2+”. Further, the “intracellular Ca2+ movement in response to ATP” value in assay [1] (ATP 100 μM) was “no effect on intracellular Ca^2+ movement in response to ATP”. Further, the “thapsigargin-induced release of Ca2+ from the ER” value in assay [1] (thapsigargin 4 μM) is “dramatically reduced the thapsigargin-induced release of Ca^2+ from the ER”.
